Reference: patent publication US20180214462A1 (priority 2015, published 2018)
“Also recorded” adds a separate entry of the source.

Legend:
cortex of rats = assay type: in vivo, rat; settings: for increase in vessel permeability: cortical perfusion 1 mM, TTX, CNQX and PTX present
Protocol: (§1) Body temperature was continuously monitored and kept stable at 37±0.5° C. using a feedback-controlled heating pad (Physitemp Ltd.). Heart rate, breath rate and oxygen saturation levels were continuously monitored using STARR (Life Sciences Ltd.). A cranial section (4 mm caudal, 2 mm frontal, 5 mm lateral to bregma) was removed over the right sensory-motor cortex. The dura and arachnoid layers were removed (FIG. 4B) and the exposed cortex was continuously perfused with ACSF (Prager et al., 2010) containing (in mM): 124 NaCl, 26 NaHCO3, 1.25 NaH2PO4, […], 2 CaCl2, 3 KCl, and 10 Glucose (pH 7.4).
(§2) To block neuronal activity tetrodotoxin (TTX) (Narahashi et al., 1964) (10 μM), 6-Cyano-2,3-dihydroxy-7-nitro-quinoxaline (CNQX) (Yoshiyama et al., 1995) (50 μM), D-AP5 (Morris, 1989) (50 μM) and picrotoxin (PTX) (Yoon et al., 1993) (50 μM) were added to the perfusing solution (ACSF). To induce prolonged seizures (status epilepticus, SE), 4AP (Uva et al., 2013) (500 μM) or PTX (100 μM) were added to the ACSF. Electrocorticgram (ECoG) was recorded using bi-polar electrodes and a telemetric recording system (DSI Ltd.). In some cases, thrombotic stroke was induced using photothrombosis (Prado, 1987). Detection of calcium ions in the rat cortex was done with calcium chelators as previously reported (Stosiek et al., 2003). 50 μg of the fluorescent chelator OGB were dissolved in 4 μl of dimethyl sulfoxide) DMSO) containing 20% pluronic f-127. This mixture was diluted in […] of a loading solution containing (in mM): 150 NaCl, 2.5 KCl, 10 HEPES, in ddH2O (pH=7.4).
(§3) Dynamic imaging of regional cerebral blood flow (rCBF) and BBB permeability measurements were performed as reported (Chassidim et al., 2014; Prager et al., 2010). The non-BBB permeable fluorescent dye, sodium fluorescein (NaFlu) was injected intravenously (1 mg/ml, 0.2 ml/injection, in 0.9% NaCl). Full-resolution (658×496 pixel) images of cortical surface vessels were obtained (5 frames/second, EMCCD camera: Andor Technology, DL-658 M-TIL, FIG. 4C) before, during and after injection of the tracer. Offline image analysis was carried out using MATLAB (MathWorks, Natick, USA) and included: sub-pixel image registration, segmentation using noise filtration, hole-filling and adaptive threshold to produce a binary image, separating blood vessels from extra-vascular regions (FIG. 4D). Signal intensity changes over time and space were then analyzed so that each pixel was represented by intensity vs. time (IT) curve (FIG. 4E). An arterial IT curve (AIF) was created by spatially averaging signal intensity through time in the primary artery. A BBB permeability index (PI) (FIG. 4E) was calculated for each extra-vascular pixel as the ratio between IT curve and AIF, from the point of the second decline phase to the end of the measurement
The PI indicates how much tracer remains in extra-vascular tissue in relation to the applied amount. PI>1 indicates tracer accumulation and defines BBB dysfunction. Fitting a PI to each extra-vascular pixel enabled spatial mapping of BBB permeability (FIG. 4F). The PI for each vascular pixel was set to 0, and therefore vessels were excluded from the map. The global permeability of a region was calculated by averaging its PI values. Permeability measurements with this approach are possible only for regions with fully functional vasculature as the transfer of molecules between vessel and parenchyma is quantified. Increased permeability in damaged vessels is not depicted here. […]

exposed cortex = experiment: Focally-induced cortical seizures (4AP or PTX): intravital fluorescence angiography of vessel diameter and BBB permeability; assay type: in vivo, rat; settings: for increase in vessel diameter: seizures induced by 4AP (n=6) or PTX (n=2), pooled n=8, immediate
Protocol: All experimental procedures in animals were approved by the Ben-Gurion University ethics committee for animal testing. Unless otherwise mentioned, all materials were purchased from Sigma-Aldrich ltd. Surgical procedures in male Spraugue-Dawley rats (200-380 g BW) were performed as previously reported (Prager et al., 2010). Rats were deeply anesthetized by intraperitoneal administration of either isoflurane or ketamine (100 mg/ml, 0.08 ml/100 gr) and xylasine (20 mg/ml, 0.06 ml/100 gr). The tail vein was catheterized, and animals were placed in a stereotactic frame (FIG. 4A) under a SteREO Lumar V12 fluorescence microscope (Zeiss, Gottingen, Germany).
as §1, §2, §3
The PI indicates how much tracer remains in extra-vascular tissue in relation to the applied amount. PI>1 indicates tracer accumulation and defines BBB dysfunction. Fitting a PI to each extra-vascular pixel enabled spatial mapping of BBB permeability (FIG. 4F). The PI for each vascular pixel was set to 0, and therefore vessels were excluded from the map. The global permeability of a region was calculated by averaging its PI values. […]

[1] = Preventing intracellular calcium elevation with calcium chelators in vivo; settings: data not shown
Text: The observations that direct application of NMDA similarly enhances permeability, and that permeability increase is blocked in the presence of NMDA-R blockers (FIG. 2A) indicate that the effect of glutamate is mediated by NMDA-R. Our experiments showing increased intracellular calcium in vascular endothelium in response to glutamate are consistent with previous in vitro data showing that NMDA-mediated effects are dependent on increased intracellular calcium (Krizbai et al., 1998; Sharp et al., 2003). However, we cannot rule out non-calcium dependent signaling mechanisms and the role of other components of the neurovascular unit, such as astrocytes and pericytes, which could also respond to glutamate and signal brain endothelial cells to alter permeability (Carmignoto and Gómez-Gonzalo, 2010). […] The intracellular signaling leading to enhanced permeability is also not clear. […] The latter seems unlikely with the relatively short time delay between insult (seizure/stroke) and enhanced permeability. Modulation of transcellular transport mechanisms (e.g. intercellular adhesion molecule-ICAM mediated) (Yang et al., 2005)) may also be involved.

exposed rat neocortex = experiment: NMDA-R antagonists during 4AP-induced recurrent seizures: BBB permeability, ECoG, vessel diameter; assay type: in vivo; settings: 4AP seizures, Memantine 40 mg/kg IP or D-AP5 100 μM topical; for seizure-induced permeability increase / BBB damage: pooled, p=0.02
Protocol: as §3
ECoG was recorded using a telemetric system (DSI Ltd.). Two electrodes were implanted, one attached to an intra-cranial screw adjacent to the exposed cortex, and the second placed over the exposed cortex while secured with bone wax and dental cement. In-house MATLAB scripts were used to display and record signals for post-processing. Signals were sampled at 200 Hz and filtered using a MATLAB simulated Butterworth filter, so to display only the desired frequency band (10-40 Hz). The mean power was calculated using the MATLAB “pwelch” function.
Since prolonged and recurrent epileptic seizures may also be associated with vascular pathology and damage to the BBB through the activation of NMDA-R, the effect of NMDA-R antagonists after the induction of recurrent seizures in anesthetized rats was tested. The epileptogenic substance 4AP was applied on the surface of the brain while monitoring ECoG.
Animals were treated with either topical application of the specific NMDA-R blocker D-AP5 (100 μM) (prior to and during seizure induction), or systemically with the FDA approved memantine (40 mg/kg, intraperitonealy, immediately following seizure onset).

[2] = tested on: vessels' wall (rat neocortex); experiment: Calcium imaging (OGB, probe-based confocal laser endomicroscopy) in vessel wall after drop application of glutamate; assay type: in vivo
Protocol: as §2
The exposed cortex was incubated with the final mixture for 1 hour. Probe-based confocal laser endomicroscopy (PCLE) was performed using Cellvizio dual band (Mauna Kea Technologies Ltd.) at 488 and 660 nm. […]
In control experiments, brains were exposed to ACSF for 60-120 min, no significant change in permeability was measured, excluding a time-dependent increase in permeability (“control”, −5.11±3.07%, n=16, P=0.7, Wilcoxon, FIG. 2A). […]

[3] = tested on: cultured brain endothelial cells; settings: cited from earlier work
peri-ischemic cortex = experiment: Photothrombosis stroke model: BBB dysfunction in the peri-ischemic cortex; assay type: in vivo, rat
Protocol: as §3, with “Offline image analysis was carried out using MATLAB (MathWorks, Natick, USA) and included: sub-pixel image registration, segmentation using noise filtration, hole-filling and adaptive threshold to produce a binary image, separating blood vessels from extra-vascular regions (FIG. 4D).” left out, “An arterial IT curve (AIF) was created by spatially averaging signal intensity through time in the primary artery.” left out
The PI indicates how much tracer remains in extra-vascular tissue in relation to the applied amount. […] The global permeability of a region was calculated by averaging its PI values. Permeability measurements with this approach are possible only for regions with fully functional vasculature as the transfer of molecules between vessel and parenchyma is quantified. […]

[4] = 30 minutes from seizure onset, recurrent seizures, n=7
[5] = ~10 minutes from seizure onset, 4AP or PTX pooled, n=8

Molecule: CN[C@H](CC(=O)O)C(=O)O [NMDA, N-methyl-d-aspartate]
- increase in vessel permeability (cortex of rats): 18.44±7.58%

Molecule: Nc1ccncc1 [4AP]
- increase in vessel permeability to NaFlu (exposed cortex; [4]): 14.17±4.65%
- increase in vessel diameter (exposed cortex): 10.05±1.01%
- increase in vessel permeability to NaFlu (exposed cortex; [5]): 20.01±7.24%

Molecule: picrotoxin [PTX]
- increase in vessel permeability to NaFlu (exposed cortex; [4]): 14.17±4.65%
- increase in vessel diameter (exposed cortex): 10.05±1.01%
- increase in vessel permeability to NaFlu (exposed cortex; [5]): 20.01±7.24%

Molecule: CC(=O)OCOC(=O)CN(CC(=O)OCOC(C)=O)c1ccccc1OCCOc1ccccc1N(CC(=O)OCOC(C)=O)CC(=O)OCOC(C)=O [BAPTA-AM]
- vascular side effect in vivo [1]: massive vasoconstriction and associated ischemia

Molecule: CC12CC3CC(C)(C1)CC(N)(C3)C2 [memantine]
- seizure intensity (ECoG) (exposed rat neocortex): no impact
- seizure-induced permeability increase / BBB damage (exposed rat neocortex): diminished

Molecule: N[C@@H](CCC(=O)O)C(=O)O [glutamate]
- calcium signal in the vessel wall ([2]; drop application of glutamate): Rise in calcium signal
- duration of increase in endothelial intracellular calcium ([2]; drop application of glutamate 0.01-1 mM, n=109): 12.5 ± 1.3 s
- increase in vessel permeability (cortex of rats): 18.15%±5.9%
- change in vessel diameter (cortex of rats; glutamate application with TTX, CNQX, PTX): 3.12±2.24%
- shift in vascular diameter (cortex of rats; topical glutamate 1 mM with axonal and synaptic transmission blockers): not inducing a shift in vascular diameter
- permeability of cultured brain endothelial cells [3]: increase permeability
- tight junction protein occludin ([3]; glutamate 1 mM, NMDA-R mediated): reduction in the levels and cellular redistribution
- electrical resistance ([3]; glutamate 1 mM): lower electrical resistance

Molecule: N[C@H](CCCP(=O)(O)O)C(=O)O [D-AP5, R-2-amino-5-phosphonopentanoate]
- seizure intensity (ECoG) (exposed rat neocortex): no impact
- seizure-induced permeability increase / BBB damage (exposed rat neocortex): diminished
- change in vessel permeability by glutamate in the presence of antagonist (cortex of rats; glutamate + D-AP5 50 μM): −3.81±4.34%
- averaged percent increase in permeability in the peri-infarct cortex (peri-ischemic cortex; 30 and 60 min following PT, n=7, p=0.13): non-significant change
- spatial progression of BBB dysfunction in the peri-ischemic region (peri-ischemic cortex; 30 and 60 minutes after clot induction, vs absence of D-AP5): significantly reduced; also recorded: significantly diminishes
